One compound from ChEMBL document CHEMBL1142222, “A-803467, a potent and selective Nav1.8 sodium channel blocker, attenuates neuropathic and inflammatory pain in the rat” (Proc Natl Acad Sci U S A, 2007) can be followed below.

Data set [1] has as its system Rattus norvegicus. Put plainly: Analgesic activity in ip dosed rat skin incision model of post-operative pain after 2 hrs. Format: functional.
Data set [2] addresses Muscarinic acetylcholine receptor M1 (Homo sapiens, UniProt P11229). The experiment in a line: Displacement of [3H]pirezepine from muscarinic M1 receptor. (In a radioligand displacement assay an active substance lowers the binding of a labelled ligand.)
Data set [3] is described as follows: Volume of distribution in rat. The conditions noted are these: in vivo, read-out: Vbeta. Format: ADME, organism-based.
Data set [4] is described as follows: Tmax in rat at 10 mg/kg, po. Format: ADME, organism-based. Also on record: dose 10 mg/kg, route oral. The settings on record: in vivo.
Data set [5] has as its system Rattus norvegicus. The experiment in a line: Motor effect in rat assessed as latency to fall at 300 mg/kg, ip by edge balance test. Format: functional. The conditions noted are these: route intraperitoneal.
Data set [6] concerns the target Sodium channel protein type 2 subunit alpha (Homo sapiens, UniProt Q99250). The experiment in a line: Inhibition of human Nav1.2 channel expressed in HEK293 cells at -120 mV by patch clamp method. Format: cell-based.
The target in data set [7] is 5-hydroxytryptamine receptor 7 (Homo sapiens, UniProt P34969). The experiment in a line: Displacement of [3H]LSD from 5HT7 receptor.
A short description of data set [8]: Bioavailability in rat at 10 mg/kg, ip. Type of data set: ADME, organism-based. The conditions noted are these: in vivo.
The target in another data set is P2X purinoceptor 3 (Homo sapiens, UniProt P56373). Put plainly: Inhibition of P2X3 receptor.
The test system of data set [9] is Rattus norvegicus. The experiment in a line: Analgesic activity in ip dosed rat complete Freund's adjuvant-induced thermal hyperalgesia model assessed as paw withdrawal latency after 4 days. Type of data set: functional. The conditions noted are these: 96 h.
Data set [10] has as its system Rattus norvegicus. The experiment in a line: Analgesic activity in rat vincristine-induced mechanical allodynic neuropathic pain at 100 mg/kg, ip. Format: functional. The conditions noted are these: route intraperitoneal.
For data set [11], the system named is Rattus norvegicus. Put plainly: Analgesic activity in ip dosed rat colonic distension model. Format: functional.
Data set [12] relates to Rattus norvegicus. Put plainly: Analgesic activity in rat complete Freund's adjuvant-induced mechanical hyperalgesia model assessed as paw withdrawal latency at 100 mg/kg, ip after 4 days. Type of data set: functional. The conditions noted are these: route intraperitoneal.

Structures are written as SMILES.

Chain of P2X purinoceptor 3 (P56373 whole entry): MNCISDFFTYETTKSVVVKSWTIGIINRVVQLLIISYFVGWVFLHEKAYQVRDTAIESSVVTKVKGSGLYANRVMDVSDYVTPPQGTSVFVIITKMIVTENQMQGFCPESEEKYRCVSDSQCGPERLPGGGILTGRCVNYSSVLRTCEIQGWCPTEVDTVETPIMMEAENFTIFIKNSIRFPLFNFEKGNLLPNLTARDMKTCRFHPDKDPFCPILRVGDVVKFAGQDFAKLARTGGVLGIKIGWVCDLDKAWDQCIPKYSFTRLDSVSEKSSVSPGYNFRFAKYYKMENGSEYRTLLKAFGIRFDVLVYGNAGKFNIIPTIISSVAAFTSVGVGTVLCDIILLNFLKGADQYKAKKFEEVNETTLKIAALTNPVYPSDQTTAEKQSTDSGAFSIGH
Chain of Muscarinic acetylcholine receptor M1 (P11229 whole entry): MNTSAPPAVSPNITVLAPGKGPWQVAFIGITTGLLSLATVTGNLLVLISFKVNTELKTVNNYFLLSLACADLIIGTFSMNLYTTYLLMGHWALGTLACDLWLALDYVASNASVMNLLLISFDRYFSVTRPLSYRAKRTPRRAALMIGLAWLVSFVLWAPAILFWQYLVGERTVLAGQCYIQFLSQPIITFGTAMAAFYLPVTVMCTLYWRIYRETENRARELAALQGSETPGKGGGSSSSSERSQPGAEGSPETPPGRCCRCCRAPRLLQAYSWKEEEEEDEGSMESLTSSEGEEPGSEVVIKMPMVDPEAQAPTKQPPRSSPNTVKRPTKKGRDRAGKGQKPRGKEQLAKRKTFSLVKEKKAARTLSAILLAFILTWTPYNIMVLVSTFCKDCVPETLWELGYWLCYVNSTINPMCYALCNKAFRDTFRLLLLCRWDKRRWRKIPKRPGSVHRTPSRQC
Chain of 5-hydroxytryptamine receptor 7 (P34969 whole entry): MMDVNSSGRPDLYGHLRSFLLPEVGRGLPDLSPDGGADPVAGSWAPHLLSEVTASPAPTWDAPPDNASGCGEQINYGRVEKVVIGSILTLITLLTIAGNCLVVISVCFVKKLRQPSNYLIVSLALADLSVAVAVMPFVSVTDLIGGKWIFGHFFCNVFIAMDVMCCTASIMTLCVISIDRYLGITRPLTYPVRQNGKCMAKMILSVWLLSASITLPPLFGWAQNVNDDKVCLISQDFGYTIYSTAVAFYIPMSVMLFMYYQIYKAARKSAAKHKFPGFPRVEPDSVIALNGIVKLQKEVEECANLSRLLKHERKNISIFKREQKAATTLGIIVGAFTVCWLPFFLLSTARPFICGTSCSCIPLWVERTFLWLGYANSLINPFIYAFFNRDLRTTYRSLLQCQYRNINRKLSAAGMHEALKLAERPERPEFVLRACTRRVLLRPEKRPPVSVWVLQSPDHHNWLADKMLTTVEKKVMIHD
Chain of Sodium channel protein type 2 subunit alpha (Q99250 whole entry): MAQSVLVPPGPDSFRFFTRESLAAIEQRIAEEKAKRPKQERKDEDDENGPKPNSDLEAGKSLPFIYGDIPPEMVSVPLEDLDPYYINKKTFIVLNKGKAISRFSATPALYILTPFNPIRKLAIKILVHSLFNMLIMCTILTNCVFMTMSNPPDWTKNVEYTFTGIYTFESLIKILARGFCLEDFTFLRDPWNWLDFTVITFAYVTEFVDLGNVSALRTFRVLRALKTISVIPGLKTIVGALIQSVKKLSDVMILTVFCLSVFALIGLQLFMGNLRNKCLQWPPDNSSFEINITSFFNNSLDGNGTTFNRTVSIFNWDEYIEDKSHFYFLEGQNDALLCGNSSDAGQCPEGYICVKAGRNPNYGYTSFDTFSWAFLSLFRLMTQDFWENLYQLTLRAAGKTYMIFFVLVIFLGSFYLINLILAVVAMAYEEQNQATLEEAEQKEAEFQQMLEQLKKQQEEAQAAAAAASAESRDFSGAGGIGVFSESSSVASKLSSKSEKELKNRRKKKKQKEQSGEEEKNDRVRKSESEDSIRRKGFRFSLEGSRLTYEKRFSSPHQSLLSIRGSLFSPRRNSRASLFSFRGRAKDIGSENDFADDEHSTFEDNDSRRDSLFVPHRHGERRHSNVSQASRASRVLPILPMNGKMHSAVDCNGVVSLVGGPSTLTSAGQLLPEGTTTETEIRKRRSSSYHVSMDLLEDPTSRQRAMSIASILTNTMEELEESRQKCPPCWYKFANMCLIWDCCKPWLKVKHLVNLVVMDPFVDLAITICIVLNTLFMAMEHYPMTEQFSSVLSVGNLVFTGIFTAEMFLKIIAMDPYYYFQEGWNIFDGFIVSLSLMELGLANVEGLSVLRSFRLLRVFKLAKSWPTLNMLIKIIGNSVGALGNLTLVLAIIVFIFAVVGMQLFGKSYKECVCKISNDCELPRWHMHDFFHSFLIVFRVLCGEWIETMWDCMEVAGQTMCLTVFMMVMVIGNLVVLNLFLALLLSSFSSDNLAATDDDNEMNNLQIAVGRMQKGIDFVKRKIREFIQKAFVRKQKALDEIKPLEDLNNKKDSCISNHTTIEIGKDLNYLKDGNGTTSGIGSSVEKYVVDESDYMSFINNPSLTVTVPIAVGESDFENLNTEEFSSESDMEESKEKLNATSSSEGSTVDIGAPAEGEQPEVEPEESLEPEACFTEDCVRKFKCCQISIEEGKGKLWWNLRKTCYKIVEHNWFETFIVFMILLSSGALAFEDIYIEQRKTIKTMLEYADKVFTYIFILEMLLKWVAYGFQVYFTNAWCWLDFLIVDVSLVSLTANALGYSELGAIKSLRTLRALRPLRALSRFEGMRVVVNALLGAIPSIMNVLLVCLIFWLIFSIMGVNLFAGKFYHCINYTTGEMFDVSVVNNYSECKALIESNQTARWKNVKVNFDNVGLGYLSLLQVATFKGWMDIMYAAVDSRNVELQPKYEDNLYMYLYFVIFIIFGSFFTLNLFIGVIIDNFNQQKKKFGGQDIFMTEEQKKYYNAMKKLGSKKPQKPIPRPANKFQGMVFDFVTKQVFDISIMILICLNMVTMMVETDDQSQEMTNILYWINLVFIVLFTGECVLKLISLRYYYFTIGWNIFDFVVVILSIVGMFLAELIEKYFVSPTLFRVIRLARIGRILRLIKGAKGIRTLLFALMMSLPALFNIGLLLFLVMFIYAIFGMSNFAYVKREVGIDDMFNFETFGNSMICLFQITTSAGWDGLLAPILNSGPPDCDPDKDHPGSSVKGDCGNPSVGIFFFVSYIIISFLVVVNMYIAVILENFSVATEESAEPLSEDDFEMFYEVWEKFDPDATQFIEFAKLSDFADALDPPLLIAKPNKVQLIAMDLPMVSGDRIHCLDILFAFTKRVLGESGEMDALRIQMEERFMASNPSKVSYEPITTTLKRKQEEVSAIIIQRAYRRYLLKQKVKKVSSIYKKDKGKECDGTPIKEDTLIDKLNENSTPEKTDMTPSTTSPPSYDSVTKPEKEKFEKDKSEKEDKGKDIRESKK

The ED50 is the dose at which the effect has come halfway, by size or by number of responders. One may read the IC50 as the concentration needed to halve the response being measured. The Tmax is the time from dosing to the highest level. As usually defined, the bioavailability is the share of a dose that reaches the circulation, judged against a reference dose that is usually intravenous. In the case of `COc1cc(NC(=O)c2ccc(-c3ccc(Cl)cc3)o2)cc(OC)c1`, the ED50 was over 100 mg/kg in the data set with Rattus norvegicus [1], 100 mg/kg with Rattus norvegicus [9] and over 100 mg/kg with Rattus norvegicus [11]. Moreover, the IC50 is over 10 µM in [2], 9.49 µM in [6], over 10 µM in data set [7] and over 10 µM on P2X purinoceptor 3. Also, in [3], the Vd came out at 11.5 L/kg. Further, in [4], the Tmax was 1.5 h. For the same compound, the Activity is 0% in the data set on Rattus norvegicus [5], 9% in the data set with Rattus norvegicus [10] and 42% in the data set on Rattus norvegicus [12]. In [8], the bioavailability is 26%.
